The values below come from patent publication US12172959B2, “Mono- or di-substituted indole derivatives as dengue viral replication inhibitors” (priority 2015, dated 2024).

One data set has as its system DENV-2 16681 strain. As to the kind of experiment: DENV-2 antiviral assay (eGFP fluorescence, Vero cells). It counts as cell-based, Dengue virus. The note with it: DENV-2 16681 eGFP, MOI 0.5, 3 days. The method, then:
The antiviral activity of all the compounds of the invention was tested against the DENV-2 16681 strain which was labeled with enhanced green fluorescent protein (eGPF; Table 1). The culture medium consists of minimal essential medium supplemented with 2% of heat-inactivated fetal calf serum, 0.04% gentamycin (50 mg/mL) and 2 mM of L-glutamine. Vero cells, obtained from ECACC, were suspended in culture medium and 25 μL was added to 384-well plates (2500 cells/well), which already contain the antiviral compounds. Typically, these plates contain a 5-fold serial dilution of 9 dilution steps of the test compound at 200 times the final concentration in 100% DMSO (200 nL). […] Finally, each plate contains wells which are assigned as virus controls (containing cells and virus in the absence of compound), cell controls (containing cells in the absence of virus and compound) and medium controls (containing medium in the absence of cells, virus and compounds). To the wells assigned as medium control, 25 μL of culture medium was added instead of Vero cells. Once the cells were added to the plates, the plates were incubated for 30 minutes at room temperature to allow the cells to distribute evenly within the wells. Next, the plates were incubated in a fully humidified incubator (37° C., 5% CO2) until the next day. Then, DENV-2 strain 16681, labeled with eGFP, was added at a multiplicity of infection (MOI) of 0.5. Therefore, 15 μL of virus suspension was added to all the wells containing test compound and to the wells assigned as virus control. In parallel, 15 μL of culture medium was added to the medium and cell controls. Next, the plates were incubated for 3 days in a fully humidified incubator (37° C., 5% CO2). At the day of the read out, the eGFP fluorescence was measured using an automated fluorescence microscope at 488 nm (blue laser). Using an in-house LIMS system, inhibition dose response curves for each compound were calculated and the half maximal effective concentration (EC50) was determined. Therefore, the percent inhibition (I) for every test concentration is calculated using the following formula: I=100*(ST−SCC)/(SVC−SCC); ST, SCC and SVC are the amount of eGFP signal in the test compound, cell control and virus control wells, respectively. The EC50 represents the concentration of a compound at which the virus replication is inhibited with 50%, as measured by a 50% reduction of the eGFP fluorescent intensity compared to the virus control. The EC50 is calculated using linear interpolation.

In a further data set the test system is Vero cells. The note with it: African green monkey.

Some results are limits rather than exact numbers.

In general, EC50 refers to the midpoint of the concentration-response curve. The term CC50 denotes the concentration at which the toxic effect on the cells reaches its halfway point. For the compound `COc1cc(NC(C(=O)c2c[nH]c3cc(F)ccc23)c2ccc(Cl)cc2OC)cc(S(C)(=O)=O)c1` (racemic) [Compound 1, 2-(4-chloro-2-methoxyphenyl)-1-(6-fluoro-1H-indol-3-yl)-2-((3-methoxy-5-(methylsulfonyl)phenyl)amino)ethanone], the EC50 with DENV-2 16681 strain (Dengue virus, DENV2, Vero, 72 h) worked out at 0.52 nM. In the data set with Vero cells, this compound yielded a CC50 of 5500 nM.
In the case of `COc1cc(NC(C(=O)c2c[nH]c3cc(F)ccc23)c2ccc(Cl)cc2OC)cc(S(C)(=O)=O)c1` (single isomer, unassigned) [Compound 1B, 2-(4-chloro-2-methoxyphenyl)-1-(6-fluoro-1H-indol-3-yl)-2-((3-methoxy-5-(methylsulfonyl)phenyl)amino)ethanone], the EC50 in the data set on DENV-2 16681 strain was determined as 12 nM. For the same compound, in the data set with Vero cells, the CC50 came to 6500 nM.
For `COc1cc(NC(C(=O)c2c[nH]c3c(C)c(F)ccc23)c2ccc(Cl)cc2OC)cc(S(C)(=O)=O)c1` (single isomer, unassigned) [Compound 2B, 2-(4-chloro-2-methoxyphenyl)-1-(6-fluoro-7-methyl-1H-indol-3-yl)-2-((3-methoxy-5-(methylsulfonyl)phenyl)amino)ethanone] the same measures were 26 nM and 7400 nM.
For `COc1cc(NC(C(=O)c2c[nH]c3cc(OC)ccc23)c2ccc(Cl)cc2OC)cc(S(C)(=O)=O)c1` (single isomer, unassigned) [Compound 3B, 2-(4-chloro-2-methoxyphenyl)-1-(6-methoxy-1H-indol-3-yl)-2-((3-methoxy-5-(methylsulfonyl)phenyl)amino)ethanone], in the data set with DENV-2 16681 strain, the midpoint of the response, the EC50, lay at 3.8 nM. In addition, in the data set with Vero cells, the cytotoxic concentration (CC50) is more than 9700 nM.
Consider `COc1cc(NC(C(=O)c2c[nH]c3cc(OC)c(C)cc23)c2ccc(Cl)cc2OC)cc(S(C)(=O)=O)c1` (single isomer, unassigned) [Compound 4B, 2-(4-chloro-2-methoxyphenyl)-2-((3-methoxy-5-(methyl-sulfonyl)phenyl)amino)-1-(6-methoxy-5-methyl-1H-indol-3-yl)ethanone], for which the response in the data set on DENV-2 16681 strain was half-maximal at 36 nM (EC50). In the data set on Vero cells, this compound showed a CC50 of 12000 nM.
In the same order, the values of `COc1cc(NC(C(=O)c2c[nH]c3cc(OC)c(F)cc23)c2ccc(Cl)cc2OC)cc(S(C)(=O)=O)c1` (single isomer, unassigned) [Compound 5B, 2-(4-chloro-2-methoxyphenyl)-1-(5-fluoro-6-methoxy-1H-indol-3-yl)-2-((3-methoxy-5-(methylsulfonyl)phenyl)amino)ethanone] are 68 nM and 13000 nM.
On to `COc1cc(NC(C(=O)c2c[nH]c3c(C)c(OC)ccc23)c2ccc(Cl)cc2OC)cc(S(C)(=O)=O)c1` (single isomer, unassigned) [Compound 6B, 2-(4-chloro-2-methoxyphenyl)-2-((3-methoxy-5-(methyl-sulfonyl)phenyl)amino)-1-(6-methoxy-7-methyl-1H-indol-3-yl)ethanone], for which, in the data set with DENV-2 16681 strain, the EC50 amounted to 19 nM. In the data set with Vero cells, this compound registered a CC50 of 11000 nM.
For `COc1cc(NC(C(=O)c2c[nH]c3cc(F)c(C)cc23)c2ccc(Cl)cc2OC)cc(S(C)(=O)=O)c1` (single isomer, unassigned) [Compound 7A, 2-(4-chloro-2-methoxyphenyl)-1-(6-fluoro-5-methyl-1H-indol-3-yl)-2-((3-methoxy-5-(methylsulfonyl)phenyl)amino)ethanone] the same measures were 13 nM and 6800 nM.
In the same order, the values of `COc1cc(NC(C(=O)c2c[nH]c3ccc(C(F)(F)F)cc23)c2ccc(Cl)cc2OC)cc(S(C)(=O)=O)c1` (single isomer, unassigned) [Compound 8A, 2-(4-chloro-2-methoxyphenyl)-2-((3-methoxy-5-(methyl-sulfonyl)phenyl)amino)-1-(5-(trifluoromethyl)-1H-indol-3-yl)ethanone] are 3 nM and 7400 nM.
Turning to `COc1cc(NC(C(=O)c2c[nH]c3ccc(OC(F)(F)F)cc23)c2ccc(Cl)cc2OC)cc(S(C)(=O)=O)c1` (single isomer, unassigned) [Compound 9B, 2-(4-chloro-2-methoxyphenyl)-2-((3-methoxy-5-(methyl-sulfonyl)phenyl)amino)-1-(5-(trifluoromethoxy)-1H-indol-3-yl)ethanone], in the data set with DENV-2 16681 strain, a half-maximal effect (EC50) was put at 3.8 nM. The CC50 in the data set with Vero cells worked out at 6200 nM.
Regarding `COc1cc(NC(C(=O)c2c[nH]c3cc(OC)c(OC(F)(F)F)cc23)c2ccc(Cl)cc2OC)cc(S(C)(=O)=O)c1` (single isomer, unassigned) [Compound 10B, 2-(4-chloro-2-methoxyphenyl)-2-((3-methoxy-5-(methylsulfonyl)phenyl)amino)-1-(6-methoxy-5-(trifluoromethoxy)-1H-indol-3-yl)ethanone], in the data set on DENV-2 16681 strain, the midpoint of the response, the EC50, lay at 3.9 nM. Also, the CC50 in the data set with Vero cells turned out to be 9800 nM.
In the same order, the values of `COc1cc(NC(C(=O)c2c[nH]c3c(C)cc(OC(F)(F)F)cc23)c2ccc(Cl)cc2OC)cc(S(C)(=O)=O)c1` (single isomer, unassigned) [Compound 11B, 2-(4-chloro-2-methoxyphenyl)-2-((3-methoxy-5-(methylsulfonyl)phenyl)amino)-1-(7-methyl-5-(trifluoromethoxy)-1H-indol-3-yl)ethanone] are 4.1 nM and 9200 nM.
